Experimental data reported in EP0181109B1, “N6-benzopyrano- and benzothiopyrano-adenosines” (WARNER-LAMBERT COMPANY, priority 1984, dated 1986).

How the values were obtained:
spontaneous locomotion = test: Mouse Activity and Screen Test Procedure (MAST): locomotor activity in actophotometer; assay type: in vivo, Swiss-Webster male mice; details: one hour prior to testing
Protocol: (§1) Nine unfasted Swiss-Webster male mice weighing 20-30 g are equally divided into three groups for each drug dose to be tested. There is, data for each dose level was generated by three separate groups of three mice each.
(§2) A minimum of three dose levels (10, 30, and 100 mg/kg) are tested for each drug. Treatments are administered intraperitoneally one hour prior to testing. All dosages are calculated as parent compound and given in volumes of 10 ml/kg. Compounds are dissolved or suspended in 0.2% Methocel. Control animals are injected with Methocel.
The actophotometer consists of a cylindrical chamber whose center is occupied by another cylinder which contains the illumination for six photocells located on the perimeter of the chamber. Six light-beam interruptions equal one count. Locomotor activity is recorded by computer at ten minute intervals for 60 minutes.
Data: The data obtained from the screen test are expressed as percent of mice falling off the screen. Data derived from locomotor activity of drug treated mice are compared to the activity of vehicle treated animals and are expressed as percent inhibition of spontaneous locomotion. All percentages reported for inhibition of locomotion (LI) are based upon data accumulated for one hour. […] An overall dose rating is obtained by the following criteria:
LAD refers to the lowest dose at which an A rating is achieved. […] The compounds are identified in the Examples.

adenosine A1 receptor = target: T1, adenosine A1 receptor (Rattus norvegicus, UniProt P25099); test: Adenosine Receptor Binding - A1 Receptor Affinity (RBA 1), [3H]-CHA displacement; details: rat whole brain membranes, 1.0 nM [3H]-CHA, one hour at 25°C
T1 construct: Whole brain minus cerebellum and brainstem from male Long Evans rats (150-200 g) was homogenized; from tissue; host or cells: rat whole brain minus cerebellum and brainstem (membrane homogenate)
T1 sequence (P25099 1-326): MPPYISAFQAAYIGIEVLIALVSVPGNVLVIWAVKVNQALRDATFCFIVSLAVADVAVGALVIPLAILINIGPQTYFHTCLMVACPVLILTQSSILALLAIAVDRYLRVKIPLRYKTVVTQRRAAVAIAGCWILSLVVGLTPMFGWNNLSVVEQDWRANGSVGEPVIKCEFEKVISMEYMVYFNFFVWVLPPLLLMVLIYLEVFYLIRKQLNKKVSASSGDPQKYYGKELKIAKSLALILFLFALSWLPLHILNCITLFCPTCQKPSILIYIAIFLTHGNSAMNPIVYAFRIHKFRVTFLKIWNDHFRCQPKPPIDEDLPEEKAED
Protocol: Whole brain minus cerebellum and brainstem from male Long Evans rats (150-200 g) was homogenized in 30 volumes of ice-cold 0.05 M Tris-HCI buffer pH 7.7 using a Brinkman Polytron PT-10, (setting number 6 for 20 seconds) and centrifuged for ten minutes at 20,000 x g (Sorvall RC-2), 4°C. The supernatant was discarded, and the pellet was resuspended and centrifuged as before. The pellet was resuspended in 20 ml Tris-HCI buffer containing two International Units/ml of adenosine deaminase (Sigma Type III from calf intestinal mucosa), incubated at 37°C for 30 minutes, then subsequently at 0°C for ten minutes. The homogenate was again centrifuged, and the final pellet was resuspended in ice-cold 0.05 M Tris-HCI buffer pH 7.7 to a concentration of 20 mg/ml original wet tissue weight and used immediately.
Tissue homogenate (10 mg/ml) was incubated in 0.05 M Tris-HCI buffer pH 7.7 containing 1.0 nM [^3H]-N^6-cyclohexyladenosine (^3H]-CHA) with or without test agents in triplicate for one hour at 25°C. Incubation volume was 2 ml. Unbound [^3H]-CHA was separated by rapid filtration under reduced pressure through Whatman glass fiber (GF/B) filters. The filters were rinsed three times with 5 ml of ice cold 0.05 M Tris-HCI buffer pH 7.7. The radio-labele ligand retained on the filter was measured by liquid scintillation spectrophotometry after shaking the filters for one hour or longer on a mechanical shaker in 10 ml of Beckman Ready-Solv HP scintillation cocktail.
Nonspecific binding was defined as the binding which occurred in the presence of 1 mM theophylline. The concentration of test agent which inhibited 50% of the specific binding (IC50) was determined by nonlinear computer curve fit. The Scatchard plot was calculated by linear regression of the line obtained by plotting the amount of radioligand bound (pmoles/gram of tissue) versus
• bound radioligand • free radioligand Since the amount of radioligand bound was a small fraction of the total amount added, free radioligand was defined as the concentration (nM) of radioligand added to the incubation mixture. The Hill coefficient was calculated by linear regression of the line obtained by plotting the log of the bound radioligand vs the log of the • bound radioligand • Bmax - bound radioligand • The maximal number of binding sites (Bmax) was calculated from the Scatchard plot.

[1] = test system: mice falling off the inverted screen; test: Mouse Activity and Screen Test Procedure (MAST): screen test (ST); assay type: in vivo, Swiss-Webster male mice; details: one hour postinjection, percent of mice falling off the screen
Description: The compounds of the invention are new chemical substances which are useful as pharmaceutical agents for the treatment of psychoses. The antipsychotic activity of representative compounds of the invention was established by the Mouse Activity and Screen Test Procedure (MAST) described below.
as §1, §2
Testing: A two part testing procedure is started one hour postinjection. First, the screen test (ST) is performed (see Pharmac. Biochem. Behav. 6,351-353,1977). Briefly this test consists of placing mice on individual wire screens which are then rotated 180 degrees at the start of a 60 second observation period. The number of mice falling off the inverted screen is recorded.
Data: The data obtained from the screen test are expressed as percent of mice falling off the screen. Data derived from locomotor activity of drug treated mice are compared to the activity of vehicle treated animals and are expressed as percent inhibition of spontaneous locomotion. All percentages reported for inhibition of locomotion (LI) are based upon data accumulated for one hour. Both phases of testing are graded: A=60-100%; C=31-59%; and N=0-30%. An overall dose rating is obtained by the following criteria:
LAD refers to the lowest dose at which an A rating is achieved. […] Utilizing this procedure, an overall dose rating of A was obtained for the noted compound at the indicated dose. The compounds are identified in the Examples.

| Structure (SMILES) | Inhibition of Mouse Locomotion Activity (spontaneous locomotion; 1 mg/kg intraperitoneally) | Inhibition of Mouse Locomotion Activity (spontaneous locomotion; 3 mg/kg intraperitoneally) | Inhibition of Mouse Locomotion Activity (spontaneous locomotion; 10 mg/kg intraperitoneally) | Inhibition of Mouse Locomotion Activity (spontaneous locomotion; 30 mg/kg intraperitoneally) | Inhibition of Mouse Locomotion Activity (spontaneous locomotion; 100 mg/kg intraperitoneally) | IC50 (adenosine A1 receptor) | Screen Test Failure ([1]; 1 mg/kg intraperitoneally) | Screen Test Failure ([1]; 3 mg/kg intraperitoneally) | Screen Test Failure ([1]; 10 mg/kg intraperitoneally) | Screen Test Failure ([1]; 30 mg/kg intraperitoneally) | Screen Test Failure ([1]; 100 mg/kg intraperitoneally) |
| --- | --- | --- | --- | --- | --- | --- | --- | --- | --- | --- | --- |
| Cc1cc2c(cc1C)OCC(Nc1ncnc3c1ncn3[C@@H]1O[C@H](CO)[C@@H](O)[C@H]1O)C2 (stereo partly shown) [Example 9, N^6-[6,7-Dimethyl-3-chromanylamino]adenosine] | 11% | 34% | 77% | 96% | 97% | 8.1 nM | 0% | 0% | 22% | 44% | 77% |
| Cc1ccc2c(c1C)OCC(Nc1ncnc3c1ncn3[C@@H]1O[C@H](CO)[C@@H](O)[C@H]1O)C2 (stereo partly shown) [Example 10, N^6-[7,8-Dimethyl-3-chromanylamino]adenosine] | -8% | 33% | 85% | 91% | 96% | 27 nM | 0% | 0% | 11% | 22% | 55% |
| C[C@H]1Oc2ccccc2C[C@@H]1Nc1ncnc2c1ncn2[C@@H]1O[C@H](CO)[C@@H](O)[C@H]1O (relative stereo) [Example 8, N^l-[trans-2-Methyl,-3-chromanylamino]adenosine] | 52% | 84% | 95% | 98% | 99% | 45 nM | 0% | 11% | 0% | 11% | 33% |
| COc1ccc2c(c1)CC(Nc1ncnc3c1ncn3[C@@H]1O[C@H](CO)[C@@H](O)[C@H]1O)CO2 (stereo partly shown) [Example 6] | 45% | 77% | 98% | 98% | 100% | 4.9 nM | 0% | 0% | 77% | 99% | 99% |
| OC[C@H]1O[C@@H](n2cnc3c(NC4COc5ccccc5C4)ncnc32)[C@H](O)[C@@H]1O (stereo partly shown) [Example 4, N^6-[3-Chromanylamino]adenosine] | 36% | 87% | 94% | 99% | 98% | 20 nM | 22% | 11% | 11% | 100% | 88% |
